The source of these data is patent US20120208873A1, “TEA POLYPHENOLS PRODUCTS FOR CEASING SMOKING AND TREATING AND/OR PREVENTING NICOTINE OR NICOTINE-DERIVED COMPOUNDS OR ESTROGEN INDUCED BREAST CANCER” (priority 2011, published 2012).

pKd: −log10 of the molar value. Like-named read-outs stand apart in the source and are kept apart here. Some results are limits rather than exact numbers.

One data set has as its system α9-nAChR protein. Description: α9-nAChR protein levels by immunoblotting in MCF-7 cells. Type of data set: cell-based, human. On the procedure:
(§1) Human mammary gland epithelial adenocarcinomas (MCF7, MDA-MB-231, AU-565, MDA-MB-453, and BT-483) and normal human mammary gland epithelial fibrocystic cell lines (MCF-10A and HBL-100) were purchased from ATCC (American Type Culture Collection, Manassas, Va., USA). MCF-7, MDA-MB-231, and MDA-MB-453 cells were maintained in DMEM, whereas BT-483 cells were maintained in RPMI-1640. Cell growth, proliferation, and viability were determined by the 3-(4,5-dimethylthiazol-2-yl)-2,5-diphenyltetrazolium (MTT) assay. The formazan product was measured by absorbance at 540 nm.
(§2) To prepare protein samples, cells were washed once with ice-cold PBS and lysed on ice in cell lysis buffer (50 mM Tris-HCl, pH 8.0, 120 mM […], 0.5% Nonidet P-40, 100 mM sodium fluoride, and 200 μM sodium orthovanadate) containing protease inhibitors as described previously (Shih, Y. L., Liu, H. C., Chen, C. S., Hsu, C. H. et al., J. Agric. Food Chem. 2010, 58, 235-241). Protein (50 μg) from each sample was resolved by 12% SDS-polyacrylamide gel electrophoresis, transferred, and analyzed by Western blotting. Antibodies were purchased from the following vendors: anti-total AKT and protein A/G agarose beads were obtained from Santa Cruz Biotechnology (Santa Cruz, Calif., USA); anti-GAPDH and anti-α9-nAChR antibodies were from Abcam (Cambridge, UK); antiphospho AKT (Ser^473), anti-c-Jun, and anti-c-Fos were from Cell Signaling Technology (Beverly, Mass., USA). The secondary antibodies, alkaline phosphatase-coupled anti-mouse, and anti-rabbit IgG were purchased from Santa Cruz Biotechnology. The specific protein complexes were identified with the chromogenic substrates nitro blue tetrazolium, and 5-bromo-4-chloro-3-indolyl-phosphate from KPL (Gaithersburg, Md., USA). In each experiment, proteins were also probed with anti-GAPDH antibodies as a protein-loading control.

The next data set has as its target T1, α9-nAChR (Homo sapiens, UniProt Q9UGM1).
T1 construct: breast cancer cell proliferation induced by Nic could be mediated through endogenous α9-nAChR; endogenous in cells; host or cells: MCF-7 cell monolayers: wild type, scramble control (Sc) and α9-nAChR siRNA knockdown (Si) clones
As to conditions: MCF-7 cells, previous results, cited from earlier work.

For the next data set, the system named is α9-nAChR promoter. Description: α9-nAChR promoter luciferase activity assay in MCF-7 cells. As to conditions: 24-h treatment, Nic 10 μM or E2 10 nM, vehicle = one-fold. The format is cell-based, human. As to the method: All α9-nAChR promoter—luciferase gene fusions were made in the pGL3-Basic vector (Promega, Madison, Wis., USA) by introducing the appropriate α9-nAChR promoter fragments into the polylinker upstream of the luciferase gene. These fragments were generated with restriction enzymes and cloned directly into pGL3-Basic or subcloned first in pBluescript and then transferred to pGL3-Basic. Deletion analysis of the most promoter-proximal region was performed by generating either appropriate restriction enzyme fragments or PCR fragments with suitable sense oligonucleotides and an antisense primer (5′-[…]-3′ (SEQ ID NO:1)) that anneals to the pGL3-Basic vector downstream of the site of transcription initiation.
MCF-7 cells were plated in 6-well plates. Cells were transiently cotransfected the next day with 1.5 μg of PGL3-Basic plasmid containing the full-length α9-nAChR promoter and 0.1 μg of the RLTK plasmid (Promega) using an MP-100 microporator (Digital Bio), according to the manufacturer's instructions. After incubation for 24 h, the medium was changed to culture medium containing 10% FBS or 0.1% FB S with or without Nic. Cells were lysed 24 h later with 1× Reporter Lysis Buffer (Promega) and stored frozen at −20° C. overnight. Luciferase activity was determined by testing 50 μL of the cell lysate and 50 μL of the Luciferase Assay Reagent (Promega) using a HIDEX Chameleon Microplate Reader. Relative luciferase units were normalized to renilla luciferase from the same cell lysates. Each luciferase assay experiment was performed three times.

For a further data set, the system named is AP-1. Description: ChIP assay of AP-1 binding to the α9-nAChR promoter in MCF-7 cells. The format is cell-based, human. As to conditions: 24 h after Nic 10 μM. As to the method: Chromatin immunoprecipitation (ChIP) assays of cultured cells were performed as described previously (Chen, C. S., Lee, C. H., Hsieh, C. D., Ho, C. T. et al., Breast Cancer Res. Treat. 2010; Shih, Y. L., Liu, H. C., Chen, C. S., Hsu, C. H. et al., J. Agric. Food Chem. 2010, 58, 235-241). Briefly, after various regimens of Nic treatment, the cells were fixed with a final concentration of 1% formaldehyde directly added to the cell culture medium at 25° C. for 15 min. The crosslinking reaction was terminated with 0.125 M glycine for 5 min, and the cells were collected into a new Eppendorf tube. The cell lysate was sonicated three times with 10 s bursts to yield input DNA enriched for fragments around 1000 bp in size. A c-Jun (AP-1) antibody (Santa Cruz Biotechnology) was used for the immunoprecipitation reactions. Primers, which detect the a9-nAChR promoter regions, amplified a region from −960 to −1 for 32 cycles (forward: 5′-ATGCAATG CAAGCCTGAGCT-3′ (SEQ ID NO:2) and reverse: 5′-TATA-[…]-3′ (SEQ ID NO:3)). The PCR products were then separated and analyzed by agarose gel electrophoresis.

A further data set has as its system α9-nAChR mRNA. As to the kind of experiment: α9-nAChR mRNA by RT-PCR / real-time PCR in MCF-7 cells. The format is cell-based, human. On the procedure: Total RNA was isolated from human cell lines using TRIzol (Invitrogen, Carlsbad, Calif., USA) according to the manufacturer's protocol. The α9-nAChR subunit-specific primers were synthesized by MB Mission BioTech (Taipei, Taiwan) as described in the previous reports (Chen, C. S., Lee, C. H., Hsieh, C. D., Ho, C. T. et al., Breast Cancer Res. Treat. 2010; Shih, Y. L., Liu, H. C., Chen, C. S., Hsu, C. H. et al., J. Agric. Food Chem. 2010, 58, 235-241). The PCR amplicons were analyzed on 1.2% agarose gels (Amresco, Solon, Ohio, USA) stained with ethidium bromide. The α9-nAChR mRNA intensity was measured and normalized to β-glucuronidase expression. Pictures of the bands were taken using an INFINITY-α digital imaging system (Vilber Lourmat, France), and band intensities were determined using PhotoCapt Version 11.01 software.
For orientation: Real-time PCR tracks product formation cycle by cycle.

The conditions of data set [1]: cited from earlier work.
The subject of another data set is p-AKT (Ser^473). Description: phosphorylated AKT by immunoblotting in MCF-7 cells. Type of data set: cell-based, human. As to conditions: Nic 10 μM or E2 10 nM, 24 h. As to the method: as §2
On the technique in general: Immunoblotting shows a protein as a band on a membrane.

The next data set deals with MCF-7 cells. As to the kind of experiment: Cell proliferation (MTT assay) in MCF-7 cells. Type of data set: cell-based, human. The note with it: Nic 10 μM. As to the method:
as §1
(Formazan colour is commonly taken as a measure of viable cells.)

A further data set deals with MCF-10A cells. As to the kind of experiment: Cell proliferation (MTT assay) in normal MCF-10A cells. Type of data set: cell-based, human. As to conditions: Nic 10 μM or EGCG 10-25 μM. On the procedure:
as §1

Usually pKd stands for the Kd on a negative log10 scale, so that one unit is a factor of ten.

T1 sequence (Q9UGM1 26-479 limits assumed): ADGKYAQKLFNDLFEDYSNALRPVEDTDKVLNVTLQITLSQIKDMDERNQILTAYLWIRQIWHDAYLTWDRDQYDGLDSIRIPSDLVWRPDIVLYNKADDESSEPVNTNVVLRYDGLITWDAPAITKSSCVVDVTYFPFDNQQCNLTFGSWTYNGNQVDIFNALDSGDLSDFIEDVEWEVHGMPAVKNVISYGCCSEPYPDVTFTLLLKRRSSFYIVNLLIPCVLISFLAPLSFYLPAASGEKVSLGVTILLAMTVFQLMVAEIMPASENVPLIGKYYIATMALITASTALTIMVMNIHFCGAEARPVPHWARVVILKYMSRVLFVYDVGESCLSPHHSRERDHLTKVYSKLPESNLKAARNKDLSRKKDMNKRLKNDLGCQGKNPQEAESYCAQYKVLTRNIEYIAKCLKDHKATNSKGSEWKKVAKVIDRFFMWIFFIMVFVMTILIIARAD

Take `CN(CCCC(=O)c1cccnc1)N=O` [NNK, 4-(methylnitrosamino)-1-(3-pyridyl)-1-butanone]: the α9-nAChR protein level entry with α9-nAChR protein (MCF-7, Nic 0.1-10 μM, NNK 0.1-10 μM or E2 1-200 nM, 24 h, dose-dependent) was “significantly induced”.

As to `[3H]CN1CCCC1c1cccnc1` [[^3H]-Nic, L-(−)-[N-methyl-^3H]-Nic], the “time at which maximum binding activity is attained” value at α9-nAChR is listed as 60 min.

`CN1CCCC1c1cccnc1` (centres unmarked) [Nic, nicotine]: in the data set on α9-nAChR promoter, the “induction of full-length α9-nAChR promoter luciferase activity” value turned out to be 41.8 fold. Moreover, in the data set with α9-nAChR protein, the “time after Nic treatment at which significant increase in α9-nAChR protein level was detected” value turned out to be 6 h and the α9-nAChR protein level result is “significantly induced”. The “binding of AP-1 to the α9-nAChR promoter” value with AP-1 was “increased binding”. Also, the “time after Nic treatment at which significant increase in α9-nAChR mRNA level was detected” value in the data set with α9-nAChR mRNA (Nic 1 μM time course) is reported as 6 h. The “α9-nAChR mRNA expression (real-time PCR)” value in the data set with α9-nAChR mRNA (Nic 10 μM or E2 10 nM, 24 h) was “significantly upregulated”. Also, in data set [1] (in vivo), the “Nic concentration in gastric juices” value is > 800 ng/mL, the “Nic concentration in plasma” value is “about 15 ng/mL”, the “Nic concentration in saliva” value was > 1300 ng/mL and the “saliva concentration of nicotine” value is reported as 1 mM. Moreover, in data set [1] (in vivo), the “serum concentration of nicotine” value is 10 to 100 µM and the “steady-state serum concentration of nicotine” value was 200 nM. The “inhaled Nic absorbed systemically during smoking” value in data set [1] (studies using ^14C-Nic) was 80-90%. Also, the “levels of p-AKT (Ser^473)” value in the data set on p-AKT (Ser^473) is “significantly increased”. Also, the “cellular proliferation rates in wild-type (C) and scrambled vector control (Sc) cells” value in the data set with MCF-7 cells (MCF-7 (C) and (Sc)) is reported as “significantly increased”. In addition, the “breast cancer cell growth” value in the data set with MCF-7 cells (MCF-7, 24 h) is “significantly stimulated”. In addition, the “Nic-induced growth effects in α9-nAChR siRNA knockdown (Si) cells” value in the data set with MCF-7 cells (MCF-7 α9-nAChR (Si)) is listed as “almost completely attenuated”. In the data set on MCF-10A cells, the “cell number in normal breast epithelial cells” value is listed as “no changes”.

`C[C@]12CC[C@@H]3c4ccc(O)cc4CC[C@H]3[C@@H]1CC[C@@H]2O` [E2, estradiol]: the “induction of full-length α9-nAChR promoter luciferase activity” value in the data set with α9-nAChR promoter was 2.3 fold.

In the case of `O=c1cc(N2CCOCC2)oc2c(-c3ccccc3)cccc12` [LY294002], the “Nic- and E2-induced upregulation of α9-nAChR protein after inhibitor pretreatment” value in the data set on α9-nAChR protein (MCF-7, 24 h pretreatment (LY294002 25 μM or EGCG 10 μM), then Nic 10 μM or E2 10 nM 24 h) is on record as “not significantly inhibited”.

As for `CN1CCCC1c1cccnc1` [[^3H]-Nic, L-(−)-[N-methyl-^3H]-Nic], the negative-log Kd (pKd) at α9-nAChR (read-out: dissociation constant (Kd) of [^3H]-Nic binding) was 8.52.
